In patent US10072034B2, “Kinase inhibitors” (Respivert Limited, priority 2016, dated 2018):
Values after ≈ are worked out from the molar mass of the structure shown. Read-outs that look alike come from different tables or passages of the source.

Tests used:
[1] = target: c-Src (Homo sapiens (Human), UniProt P12931); assay: c-Src enzyme inhibition (FRET, Z-LYTE); format: biochemical
Procedure: (§1) The enzyme inhibitory activities of compounds disclosed herein are determined by FRET using synthetic peptides labelled with both donor and acceptor fluorophores (Z-LYTE, Invitrogen Ltd., Paisley, UK).
(§2) The inhibitory activities of compounds of the invention against c-Src and Syk enzymes (Invitrogen), are evaluated in a similar fashion to that described hereinabove. The relevant enzyme (3000 ng/mL or 2000 ng/mL respectively, 2.5 μL) is incubated with the test compound (either 1 μg/mL, 0.1 μg/mL, 0.01 μg/mL, or 0.001 μg/mL, 2.5 μL each) for 2 hr at RT. The FRET peptides (8 μM. 2.5 μL), and appropriate ATP solutions (2.5 μL, 800 μM for c-Src, and 60 μM ATP for Syk) are then added to the enzymes/compound mixtures and the mixture incubated for 1 hr. Development reagent (protease, 5 μL) is added for 1 hr prior to detection in a fluorescence microplate reader (Varioskan® Flash, ThermoFisher Scientific).
(§3) In all cases, the site-specific protease cleaves non-phosphorylated peptide only and eliminates the FRET signal. Phosphorylation levels of each reaction are calculated using the ratio of coumarin emission (donor) over fluorescein emission (acceptor), for which high ratios indicate high phosphorylation and low ratios indicate low phosphorylation levels. […]

[2] = tested on: IFN gamma release in PBMCs; assay: IFN gamma release in CD3/CD28 stimulated PBMC cells (assay (c)); format: cell-based; conditions: Homo sapiens, read-out: IC50 Values in PBMCs IFNγ
Procedure: PBMCs from healthy subjects are separated from whole blood using a density gradient (Lymphoprep, Axis-Shield Healthcare). Cells are added to a 96 well plate pre-coated with a mixture of CD3/CD28 monoclonal antibodies (0.3 μg/mL eBioscience and 3 μg/mL BD Pharmingen respectively). Compound at the desired concentration is then added to the wells and the plate left for 3 days under normal tissue culture conditions. Supernatants are harvested and IL-2 and IFN gamma release determined by Sandwich ELISA (Duo-set, R&D System). The IC50 is determined from the dose response curve.

[3] = Solubility in fasted-state simulated colonic fluid (FaSSCoF) at pH 6.5; format: physicochemical; conditions: fasted-state simulated colonic fluid (FaSSCoF), 25 °C, pH 6.5, fassgf or other biorelevant, thermodynamic from solid, pH 6.5, 25° C.
Procedure: The solubilities of compounds of the invention in FaSSCoF at pH 6.5 are determined using a modification of a previously-reported procedure (Vertzoni, M., et al. Pharm. Res. 2010, 27, 2187-2196). In place of the bile salt extract employed in the original procedure (which extract is no longer available), the modified procedure uses a mixture of sodium taurocholate (0.15 g), glycocholic acid (0.15 g), ursodeoxycholic acid (0.05 g), cholic acid (0.05 g), and glycodeoxycholic acid (0.05 g). These five bile acids are ground together with a mortar and pestle to produce a fine white powder that is incorporated into the FaSSCoF, as outlined below.
FaSSCoF medium: Tris(hydroxymethyl)aminomethane (Tris; 0.275 g) and maleic acid (0.44 g) are dissolved in water (35 mL) to give a solution whose pH is adjusted to 6.5 by treatment with 0.5M NaOH (ca. 12 mL). The solution is then made up to 50 mL with water. A portion of this Tris/maleate buffer solution (ca. 25 mL) is added to a 0.5 L round-bottomed flask, before being treated with 0.00565 g of the bile acid mixture described above. Solutions of phosphatidylcholine (0.0111 g) in DCM (0.15 mL) and palmitic acid (0.0013 g) in DCM (0.15 mL) are added, then the organic solvent is evaporated off under reduced pressure at 40° C. until a clear solution, with no perceptible DCM odour, is achieved. The volume of the evaporated solution is adjusted to 50 mL by addition of the remainder of Tris/maleate buffer, then BSA (0.115 g) is added, before being dissolved by gentle agitation.
Solubility Determination: Test compounds are suspended in the pH 6.5 FaSSCoF medium to give a maximum final concentration of 2-10 mg/mL. The suspensions are equilibrated at 25° C. for 24 h, before being filtered through a glass fibre C filter. The filtrates are then diluted as appropriate for injection and quantification by HPLC with reference to a standard. Different volumes of the standard, diluted and undiluted sample solutions are injected and the solubilities are calculated using the peak areas determined by integration of the peak found at the same retention time as the principal peak in the standard injection.

[4] = target: Syk (Homo sapiens (Human), UniProt P43405); assay: Syk enzyme inhibition (FRET, Z-LYTE); format: biochemical
Procedure: as §1, §2, §3

[5] = target: p38 MAPKα (Homo sapiens (Human), UniProt Q16539); assay: p38 MAPKα enzyme inhibition (FRET, Z-LYTE; Method 2); format: biochemical
Procedure: as §1
The inhibitory activities of test compounds against the p38 MAPKα isoform (MAPK14: Invitrogen) are evaluated indirectly by determining the level of activation/phosphorylation of the down-stream molecule, MAPKAP-K2. The p38 MAPKα protein (80 ng/mL, 2.5 μL) is mixed with the test compound (2.5 μL of either 4 μg/mL, 0.4 μg/mL, 0.04 μg/mL or 0.004 μg/mL) for 2 hr at RT. […] The mixture is incubated for 1 hr at RT. Development reagent (protease, 5 μL) is added for 1 hr prior to detection in a fluorescence microplate reader (Varioskan® Flash, ThermoFisher Scientific).
This method follows the same steps as Method 1 above, but utilises a higher concentration of the p38 MAPKα protein (2.5 μL of 200 ng/mL protein instead of 2.5 μL of 80 ng/mL protein) for mixing with the test compound (tested at either 1 μg/mL, 0.1 μg/mL, 0.01 μg/mL or 0.001 μg/mL).
as §3

[6] = tested on: Jurkat cells; assay: Cell cytotoxicity assay, Jurkat cell viability (assay (r)); format: cell-based, human; conditions: 24 hours
Procedure: 1×10^5 Jurkat cells (immortalised human T lymphocytes) are added to the appropriate number of wells of a 96 well plate in 100 μL of media (RPMI supplemented with 10% foetal bovine serum). 1 μL of DMSO control (final concentration 1.0% v/v) or test compound (final concentration 20, 5 or 1 μg/mL) is added to the wells and incubated at 37° C., 5% CO2. After 24 hours, the plate is centrifuged at 1200 rpm for 3 minutes and the supernatant discarded. Cells are then resuspended in 150 μL (final concentration 7.5 μg/mL) of propidium iodide (PI) in PBS and incubated at 37° C., 5% CO2 for 15 minutes. After 15 minutes, cells are analysed by flow cytometry (BD accuri) using the FL3 window. The % viability is calculated as the % of cells that are P negative in the test wells normalised to the DMSO control.

[7] = tested on: IL-8 release in PBMCs; assay: LPS-induced IL-8 release in PBMC cells (assay (b)); format: cell-based; conditions: Homo sapiens, LPS-stimulated PBMCs
Description: Peripheral blood mononuclear cells (PBMCs) from healthy subjects are separated from whole blood using a density gradient (Lymphoprep, Axis-Shield Healthcare). […] The supernatant is harvested for determination of IL-8 and TNFα concentrations by sandwich ELISA (Duo-set, R&D systems) and read on the fluorescence microplate reader (Varioskan® Flash, ThermoFisher Scientific).

[8] = Solubility and dissolution rate in phosphate-buffered saline (further studies); format: physicochemical; conditions: pH 6.5 with 0.5% by weight of simulated intestinal fluid or pH 7.2
[9] = Run 1, read-out: pH 6.5 FaSSCoF Solubility Run 1
[10] = Run 2, read-out: pH 6.5 FaSSCoF Solubility Run 2

p38 MAPKα, sequence (Q16539 whole entry): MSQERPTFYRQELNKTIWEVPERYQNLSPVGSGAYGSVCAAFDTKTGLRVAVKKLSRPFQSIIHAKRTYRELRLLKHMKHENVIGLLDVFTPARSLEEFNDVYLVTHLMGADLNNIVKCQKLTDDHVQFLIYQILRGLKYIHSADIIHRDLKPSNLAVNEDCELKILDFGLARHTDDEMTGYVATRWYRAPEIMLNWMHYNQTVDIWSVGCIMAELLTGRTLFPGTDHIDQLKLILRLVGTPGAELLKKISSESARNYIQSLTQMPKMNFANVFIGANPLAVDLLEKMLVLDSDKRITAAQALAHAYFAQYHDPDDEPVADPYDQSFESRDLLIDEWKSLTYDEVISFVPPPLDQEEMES
c-Src, sequence (P12931 whole entry, looked up): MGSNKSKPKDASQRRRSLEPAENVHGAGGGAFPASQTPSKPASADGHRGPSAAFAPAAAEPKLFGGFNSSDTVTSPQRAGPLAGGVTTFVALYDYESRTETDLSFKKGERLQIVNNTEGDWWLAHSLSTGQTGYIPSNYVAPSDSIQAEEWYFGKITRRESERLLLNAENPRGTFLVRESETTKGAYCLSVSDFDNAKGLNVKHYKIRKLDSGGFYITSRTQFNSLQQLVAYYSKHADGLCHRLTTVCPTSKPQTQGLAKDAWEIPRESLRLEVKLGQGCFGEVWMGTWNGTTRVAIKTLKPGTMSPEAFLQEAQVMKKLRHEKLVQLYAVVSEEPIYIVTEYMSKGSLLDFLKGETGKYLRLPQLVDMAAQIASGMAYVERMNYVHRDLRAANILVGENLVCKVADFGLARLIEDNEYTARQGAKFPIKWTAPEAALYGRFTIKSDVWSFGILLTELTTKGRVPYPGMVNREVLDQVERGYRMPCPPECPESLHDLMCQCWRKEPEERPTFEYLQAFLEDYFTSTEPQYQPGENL

Compound | IC50 [1] | IC50 [2] | solubility thermodynamic at 24 h [3, 9] | solubility thermodynamic at 24 h [3, 10] | IC50 [4] | IC50 [5] | % Viability at 1 μg/mL [6] | % Viability at 5 μg/mL [6] | % Viability at 20 μg/mL [6] | IC50 [7] | Dissolution rate relative to Reference Compounds A (hydrochloride salt) and B [8] | Solubility relative to Reference Compounds A (hydrochloride salt) and B [8]
COc1cc(Nc2nccc(Oc3ccc(NC(=O)Nc4cc(C(C)(C)C)cc(NS(C)(=O)=O)c4OC)c4ccccc34)n2)cc(OCCOCCOCC(=O)O)c1 [Example 2, 2-(2-(2-(3-((4-((4-(3-(5-(tert-Butyl)-2-methoxy-3-(methylsulfonamido)phenyl)ureido)-naphthalen-1-yl)oxy)pyrimidin-2-yl)amino)-5-methoxyphenoxy)ethoxy)ethoxy)acetic acid] | 14 nM | 39.4 nM | 90 µg/mL (≈ 110 µM) | 60 µg/mL (≈ 73.3 µM) | 8 nM | 23 nM | 99% | 99% | 97% | 24.6 nM |  | 
COc1cc(Nc2cc(Oc3ccc(NC(=O)Nc4cc(C(C)(C)C)cc(NS(C)(=O)=O)c4OC)c4ccccc34)ccn2)cc(OCCOCCOCC(=O)[O-])c1.[Na+] [Example 31, 2-(2-(2-(3-((4-((4-(3-(5-(tert-Butyl)-2-methoxy-3-(methylsulfonamido)phenyl)ureido)-naphthalen-1-yl)oxy)pyridin-2-yl)amino)-5-methoxyphenoxy)ethoxy)ethoxy)acetic acid, sodium salt] |  |  | 1900 µg/mL | 2100 µg/mL |  |  |  |  |  |  | faster dissolution rate | more soluble than
COCC(=O)Nc1cc(Oc2ccc(NC(=O)Nc3cc(C(C)(C)C)nn3-c3ccc(C)cc3)c3ccccc23)ccn1 [Reference compound, N-(4-(4-(3-(3-tert-butyl-1-p-tolyl-1H-pyrazol-5-yl)ureido)naphthalen-1-yloxy)pyridin-2-yl)-2-methoxyacetamide, reference compound] |  |  |  |  |  |  | 29% | 26% | 24% |  |  | 
